The results in this text go back to article PMC8670039, “Flavonoids kaempferol and quercetin are nuclear receptor 4A1 (NR4A1, Nur77) ligands and inhibit rhabdomyosarcoma cell and tumor growth” (Journal of Experimental & Clinical Cancer Research : CR, 2021).

Molecules are shown by their SMILES.

The assay addresses nuclear receptor 4A1 (NR4A1, Nur77) (Homo sapiens, UniProt P22736). The assay can be described thus: Trp fluorescence quenching direct binding; also bis-ANS competitive displacement (Ki […]).

nuclear receptor 4A1 (NR4A1, Nur77), sequence (P22736 351-598 limits assumed): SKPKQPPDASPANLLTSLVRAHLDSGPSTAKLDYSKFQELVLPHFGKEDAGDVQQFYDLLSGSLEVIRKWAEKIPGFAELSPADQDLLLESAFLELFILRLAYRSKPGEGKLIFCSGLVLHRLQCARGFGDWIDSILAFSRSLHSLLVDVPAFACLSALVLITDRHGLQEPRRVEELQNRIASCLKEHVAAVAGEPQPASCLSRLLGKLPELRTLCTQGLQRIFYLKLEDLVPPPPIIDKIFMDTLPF

Compound `O=c1c(O)c(-c2ccc(O)c(O)c2)oc2cc(O)cc(O)c12` [Q, quercetin] gave a Kd of 930 nM.
